What was measured:
[1] = Period 2: urine PK (renal clearance, urinary recovery); type: in vivo, human
Procedure: After a washout of 8–9 days, participants returned to the clinic for Day − 1 of Period 2. On Day 1 of Period 2, after a fast of ≥ 10 h, participants received a single nominal dose of 160 mg (~ 100 µCi; whole body effective dose of 5.3 mrem for a 70-kg human) [^14C]-mobocertinib as a 70 mL oral solution. The actual doses administered ranged from 161 to 163 mg (92.4 to 93.9 µCi). Participants stayed in the clinic from Day − 1 until a discharge criterion (≥ 80% of the total administered radioactive dose was recovered in urine and feces or excretion of radioactivity in urine and feces combined had declined to ≤ 1% of the total administered dose per day for ≥ 2 consecutive intervals) was met, or up to 10 days postdose. To measure the total radioactivity and concentrations of mobocertinib, AP32960, and AP32914 in whole blood and plasma, 4 blood samples were collected predose, and at 0.5, 1, 2, 3, 4, 5, 6, 8, 12, 24, 36, 48, 72, 96, 120, 144, 168, 192, 216, and 240 h postdose; a fifth blood sample was collected for plasma metabolite profiling at predose and 1, 2, 4, 6, 12, 24, 48, 72, 96, 120, and 168 h postdose. Feces and urine were collected predose (feces within 48 h and urine within 24 h prior to dosing), 0–24 h (urine from 0–12 and 12–24 h), and then at 24-hour intervals up to 240 h postdose or until a discharge criterion was met. […] These 2 participants continued with at-home fecal sample collections. […]
(§1) Plasma, whole blood, and urine samples were assayed for mobocertinib, AP32960, and AP32914 concentrations using liquid chromatography-tandem mass spectrometry (Q2 Solutions, Ithaca, New York, USA). […] Urine and fecal samples were assayed for total radioactivity following the IV dose of [^14C]-mobocertinib in Period 1, and whole blood, plasma, urine, and fecal samples were assayed for total radioactivity following the oral dose of [^14C]-mobocertinib in Period 2 using liquid scintillation counting (LSC; Celerion, Lincoln, Nebraska, USA; LLOQs: Period 1 urine: 0.115–0.118 ng eq/g, feces: 0.720–0.759 ng eq/g; Period 2 whole blood: 87.3–112 ng eq/g, plasma: 116–132 ng eq/mL, urine: 37.8–46.8 ng eq/g, feces: 110–336 ng eq/g across participants). Urine and fecal samples collected in Period 1 that had total radioactivity concentration equivalents below the LLOQ of the Celerion LSC assay were sent to Pharmaron for measurement by AMS (LLOQ: urine: 0.0000253–0.00111 ng eq/g; feces: 0.000404–0.0278 ng eq/g across participants). […]
PK parameters for analytes in urine and feces were calculated using SAS Version 9.4 and included the cumulative amounts and percentages of the administered radioactive dose excreted as [^14C]-mobocertinib, [^14C]-AP32960, and [^14C]-AP32914 in urine and feces following IV dosing in Period 1 and oral dosing in Period 2. […]

[2] = Period 2: mass balance (total radioactivity in urine and feces); type: in vivo, human
Procedure: After a washout of 8–9 days, participants returned to the clinic for Day − 1 of Period 2. On Day 1 of Period 2, after a fast of ≥ 10 h, participants received a single nominal dose of 160 mg (~ 100 µCi; whole body effective dose of 5.3 mrem for a 70-kg human) [^14C]-mobocertinib as a 70 mL oral solution. The actual doses administered ranged from 161 to 163 mg (92.4 to 93.9 µCi). Participants stayed in the clinic from Day − 1 until a discharge criterion (≥ 80% of the total administered radioactive dose was recovered in urine and feces or excretion of radioactivity in urine and feces combined had declined to ≤ 1% of the total administered dose per day for ≥ 2 consecutive intervals) was met, or up to 10 days postdose. To measure the total radioactivity and concentrations of mobocertinib, AP32960, and AP32914 in whole blood and plasma, 4 blood samples were collected predose, and at 0.5, 1, 2, 3, 4, 5, 6, 8, 12, 24, 36, 48, 72, 96, 120, 144, 168, 192, 216, and 240 h postdose; a fifth blood sample was collected for plasma metabolite profiling at predose and 1, 2, 4, 6, 12, 24, 48, 72, 96, 120, and 168 h postdose. Feces and urine were collected predose (feces within 48 h and urine within 24 h prior to dosing), 0–24 h (urine from 0–12 and 12–24 h), and then at 24-hour intervals up to 240 h postdose or until a discharge criterion was met. […] These 2 participants continued with at-home fecal sample collections. One participant provided fecal samples until Day 13 (264–288 h interval) and one participant provided fecal samples until Day 19 (408–432 h interval), after which they met a discharge criterion.
Plasma, whole blood, and urine samples were assayed for mobocertinib, AP32960, and AP32914 concentrations using liquid chromatography-tandem mass spectrometry (Q2 Solutions, Ithaca, New York, USA). The analytical range for each analyte was 0.250 to 500 ng/mL in whole blood and plasma, and 1.00 to 1000 ng/mL in urine. […] Urine and fecal samples were assayed for total radioactivity following the IV dose of [^14C]-mobocertinib in Period 1, and whole blood, plasma, urine, and fecal samples were assayed for total radioactivity following the oral dose of [^14C]-mobocertinib in Period 2 using liquid scintillation counting (LSC; Celerion, Lincoln, Nebraska, USA; LLOQs: Period 1 urine: 0.115–0.118 ng eq/g, feces: 0.720–0.759 ng eq/g; Period 2 whole blood: 87.3–112 ng eq/g, plasma: 116–132 ng eq/mL, urine: 37.8–46.8 ng eq/g, feces: 110–336 ng eq/g across participants). Urine and fecal samples collected in Period 1 that had total radioactivity concentration equivalents below the LLOQ of the Celerion LSC assay were sent to Pharmaron for measurement by AMS (LLOQ: urine: 0.0000253–0.00111 ng eq/g; feces: 0.000404–0.0278 ng eq/g across participants). The LSC and AMS assays were not cross-validated.
PK parameters for analytes in urine and feces were calculated using SAS Version 9.4 and included the cumulative amounts and percentages of the administered radioactive dose excreted as [^14C]-mobocertinib, [^14C]-AP32960, and [^14C]-AP32914 in urine and feces following IV dosing in Period 1 and oral dosing in Period 2. Renal clearance (CLR) was calculated as the cumulative amount of radiolabeled mobocertinib, AP32960, or AP32914 recovered in urine divided by the plasma AUC to the time of the last common time point at which an analyte was quantifiable in both urine and plasma for individual participants (AUCCLR) following oral dosing of [^14C]-mobocertinib in Period 2. Mass balance was defined as the percentage of total radioactivity recovered in urine and feces combined relative to the total amount of the administered radioactive dose.

[3] = system: platinum-pretreated EGFRex20ins mutation positive locally advanced or metastatic NSCLC; set-up: method as in PMID 34647988; conditions: 114 patients, mobocertinib 160 mg orally qd; cited from earlier work
[4] = Period 1: excretion in urine and feces after IV [14C]-mobocertinib; type: in vivo, human; conditions: Period 1, IV infusion 50 µg (~2 µCi) [14C]-mobocertinib
Procedure: On Day 1 of Period 1, following an overnight fast of at least 10 h, participants received a single 160 mg dose of non-radiolabeled mobocertinib as capsules. At 3.75 h post oral dosing (i.e., 15 min before the median oral tmax of ~ 4 h), participants received a nominal dose of 50 µg (~ 2 µCi) [^14C]-mobocertinib as a 15-minute IV infusion. However, due to nonspecific binding of [^14C]-mobocertinib to the dosing syringe and tubing, actual doses administered ranged from 36.8 to 38.7 µg (1.47 to 1.55 µCi). Participants were required to stay in the clinic from Day − 1 through at least the 96-hour blood draw (Day 5) or until a discharge criterion was met (i.e., ≥ 80% of the total administered radioactive dose was recovered in urine and fecal samples or excretion of radioactivity in urine and feces combined had declined to ≤ 1% of the total administered dose per day for ≥ 2 consecutive intervals), up to a maximum of 7 days postdose (Day 8). Blood samples for the measurement of plasma mobocertinib, AP32960, and AP32914 concentrations were collected predose and at 0.5, 1, 2, 3, 4, 5, 6, 8, 12, 24, 36, 48, 72, and 96 h after oral administration. Additional blood samples to determine [^14C]-total radioactivity, [^14C]-mobocertinib, [^14C]-AP32960, and [^14C]-AP32914 in plasma were collected at 3.75 h after oral dosing (i.e., predose for [^14C] assessments), at the end of the IV infusion, and at 10, 20, and 30 min, and 1, 2, 4, 8, 20, 32, 44, 68, and 92 h after the end of infusion. […]
as §1

[5] = Period 2, oral solution 160 mg (~100 µCi) [14C]-mobocertinib, geometric mean

Row | Compound | radioactive dose recovered in urine as mobocertinib, AP32960 and AP32914 combined ([1]; male, human, in vivo, po) | CL renal ([1]; male, human, in vivo, po, 160 mg) | administered radioactive dose unaccounted for ([2]; male, human, in vivo, po) | cumulative percentage of the radioactive dose recovered in feces (total radioactivity) ([2]; male, human, in vivo, po) | cumulative percentage of the radioactive dose recovered in urine (total radioactivity) ([2]; male, human, in vivo, po) | median duration of response [3] | median overall survival [3] | median progression-free survival [3] | objective response rate per independent-review committee [3] | administered radioactive dose excreted in urine as analyte [4] | dose recovered as total radioactivity in feces overall [4] | dose recovered as total radioactivity in urine overall [4] | radioactive dose excreted in feces as analyte [4] | radioactive dose recovered in urine as mobocertinib, AP32960 and AP32914 combined ([1]; Period 2, oral solution 160 mg [14C]-mobocertinib) | total oral radioactive dose recovered in urine as analyte ([1]; Period 2, oral solution 160 mg [14C]-mobocertinib, geometric mean) | cumulative percentage of the radioactive dose recovered in feces (total radioactivity) [2, 5] | cumulative percentage of the radioactive dose recovered in urine (total radioactivity) [2, 5] | cumulative percentage of the radioactive dose recovered in urine and feces combined ([2]; Period 2, oral solution 160 mg (~100 µCi) [14C]-mobocertinib, geometric mean, 432-hour collection interval)
1 | C=CC(=O)Nc1cc(Nc2ncc(C(=O)OC(C)C)c(-c3cn(C)c4ccccc34)n2)c(OC)cc1N(C)CCN(C)C [Mobocertinib] | 1.13% | 11 mL/min | Approximately 20% | 76.0% | 3.57% | 17.5 months | 24.0 months | 7.3 months | 28% | – | – | – | – | – | – | – | – | –
2 | [^14C]-mobocertinib | – | – | – | – | – | – | – | – | – | 1.5% | 69.9% | 4.7% | 2.5% | 1.13% | 0.39% | 76.0% | 3.57% | 79.6%
